“Also recorded” adds a separate entry of the source.
Assays:
LLC-HM primary tumor = LLC-HM primary tumor model, preclinical studies in mice; assay type: in vivo
[1] = tested on: HEY ovarian, SK-MEL-1 melanoma and ACHN renal carcinoma cell lines; assay: Murine dermis model, peritumoral vessels; assay type: in vivo
[2] = tested on: human KM12 colorectal cancer xenograft; assay: Human KM12 colorectal cancer xenograft, metastasis; assay type: in vivo, mice
Source text: (§1) A reduction of metastasis in a human KM12 colorectal cancer xenograft and reduced metastasis and increase in survival in the murine mammary (4T1) model were also observed with ANGIOZYME treatment.

[3] = tested on: murine mammary (4T1) model; assay: Murine mammary (4T1) model; assay type: in vivo
Source text: as §1

[4] = Preclinical absorption after subcutaneous administration; assay type: in vivo; details: subcutaneous (SC) administration
Source text: as §1

[5] = 13-week toxicology studies; assay type: in vivo; details: doses up to 300 mg/m^2/d
[6] = Phase I clinical trials, tolerability; assay type: in vivo, human; details: doses up to 300 mg/m^2 administered IV or SC
[7] = tested on: late-stage metastatic breast cancer; assay: Phase II monotherapy trial RPI0001, tumor response; assay type: in vivo, human
Protocol: (§2) In a Phase II monotherapy ANGIOZYME trial, 45 late-stage metastatic breast cancer patients who had failed multiple prior treatments received 100 mg/m^2 ANGIOZYME by daily SC injection. Due of the critical nature of the disease, most progressed and discontinued drug at the first evaluation (week 6). […] Clinical and biomarker results are summarized.
(§3) In RPI0001, ANGIOZYME monotherapy decreased sVEGFR-1 levels in the metastatic breast cancer setting, although there were no responses in this late-stage disease population.

sVEGFR-1 = assay: Phase II monotherapy trial RPI0001, sVEGFR-1 level; assay type: in vivo, human; details: monotherapy 100 mg/m^2 daily SC, metastatic breast cancer patients, by week 6
Protocol: as §2, §3

[8] = Phase II study RPI0003 (IFL + ANGIOZYME), adverse events; assay type: in vivo, human
Protocol: Beginning on study day 4, patients received daily doses of 100 mg/m^2 ANGIOZYME by subcutaneous injection. Unidimensional tumor measurements were obtained from CT scans after 12 and 24 weeks of treatment. Responses were then confirmed 4 weeks following initial response. ANGIOZYME treatment continued until disease progression.
Adverse event reporting for RPI0003 is ongoing for the 6 patients continuing to receive ANGIOZYME in the maintenance protocolis. […] One patient has discontinued RPI0003 due to an ISR.
Of the MedDRA organ system classes most likely to be affected by antiangiogenic drugs, only the vascular complications (DVT/PE) may appear in excess in this study. […] This observation was communicated to the FDA in September, 2002. Patients continue in the maintenance trial with all PEs and DVTs being classified as serious and ANGIOZYME-related to ensure complete reporting of these events.

[9] = tested on: metastatic colorectal cancer; details: cited from earlier work

ANGIOZYME: stabilized ribozyme that targets the pre-mRNA of vascular endothelial growth factor receptor-1 (VEGFR-1); structure in FIG. 8 (GAGUUGCUGAUGAGGCCGAAAGGCCGAAAGUCUG; stabilized ribozyme, chemical modifications not given here)
growth of the LLC-HM primary tumor (LLC-HM primary tumor): inhibited the growth of the LLC-HM primary tumor in a dose-dependent manner
mean vascular density in tumor sections (LLC-HM primary tumor; LLC-HM model): decreased
number of lung metastases (LLC-HM primary tumor; LLC-HM model): reduced
interaction with interferon treatment [1]: synergistic
number of peritumoral vessels ([1]; HEY, SK-MEL-1, ACHN cell lines): reduced
metastasis [2]: reduction
metastasis [3]: reduced
survival [3]: increase
absorption [4]: well absorbed
tolerability [5]: well tolerated
tolerability [6]: well tolerated
tumor responses [7]: no responses
change in sVEGFR-1 (sVEGFR-1): significant decrease; also recorded: decreased
patients discontinued due to an injection site reaction (ISR) ([8]; RPI0003): One
tolerability ([8]; RPI0003, daily SC injection in combination with IFL): well tolerated
toxicity added to the chemotherapy ([8]; RPI0003, with the possible exception of increased vascular complications): added no toxicity
most frequent adverse experiences ([8]; RPI0003 and all other ANGIOZYME studies): injection site reactions

irinotecan/5-fluorouracil/leucovorin [IFL]
response rate ([9]; IFL alone, patients who received IFL, good performance status, CT at 12 or 24 weeks): ~40%
Median time to progression (TTP) ([9]; IFL arm of the Pharmacia study): > 7.0 months
At least Stable at Week 12 ([9]; N = 192, Pharmacia 0038): 83%
At least Stable at Week 24 ([9]; N = 192, Pharmacia 0038): 80%
Best Overall Response (Week 24) ([9]; N = 192, Pharmacia 0038): 37%
Best Overall Response, Confirmed at Week 12 ([9]; N = 192, Pharmacia 0038): 35%
Best Overall Response, Unconfirmed at Week 12 ([9]; N = 192, Pharmacia 0038): 48%
Discontinued by Week 12 Due to Disease Progression ([9]; N = 192, Pharmacia 0038): 12%

Source: patent publication US20030232400A1, “Methods of screening subjects for expression of soluble receptors of vascular endothelial growth factor (VEGF) for use in managing treatment and determining prognostic outcome” (priority 2002, published 2003)
